Experimental data from publication PMC7819857, “Identification of Inhibitors of Integrin Cytoplasmic Domain Interactions With Syk” (Frontiers in Immunology, 2021).

Assays:
[1] = target: T1, integrin β3 cytoplasmic domain (bβ3(fl)) : GST-Syk(6-370) (Homo sapiens, UniProt P43405); assay: ELISA-based orthogonal assay, bβ3(fl) and GST-Syk(6-370); type: binding
T1 construct: the tandem SH2 domains of Syk (residues 6-370); made in house; host or cells: E. coli BL21(DE3)
Method: For ELISA-based assays, 96-well plates (Costar cat# 9018) were coated overnight at 4°C with neutravidin (Thermo Scientific, cat#31050) in 10 mM Tris pH 9 and 100 mM NaCl. After overnight incubation, non-specific binding sites were blocked with bovine serum albumin (BSA) (2% w/v) for at least 1 h at room temperature. Plates were washed in 25 mM HEPES pH 7.5, 100 mM NaCl, 0.1% BSA, and 0.01% TritonX-100 (assay buffer), and indicated biotinylated β3 peptide was incubated for at least 2 h at room temperature (0.5–3 ug/ml in di-H2O). After washing in the assay buffer, GST-fusion proteins were added (50 ul, indicated concentrations) and incubated at room temperature for 1 h in assay buffer. For compound inhibition studies, compounds were added to GST-fusion proteins (at indicated concentrations) before they were added to plates. Plates were washed 3× with assay buffer (200 ul) to remove unbound GST-fusion protein. Horseradish peroxidase (HRP)-conjugated anti-GST antibody [Polyclonal anti-GST(Z-5)-HRP, Santa Cruz Biotechnology, cat #sc-459 0.2 ug/ml] was incubated in washed plates in 50 ul assay buffer for 45 min at room temperature. After washing, the signal was generated with 1-step Ultra TMB-ELISA (Thermo Scientific, cat#34028), stopped with 2 N H2SO4, and read on a plate reader (SPARK 10M/Tecan) at 450 nm.
Figure 3 Dose-response curves in primary and orthogonal screens. (A) AlphaScreen dose-response curves. […] Data are expressed as mean fluorescence (Fl520) ± range from duplicates, and one representative experiment of “n” performed is shown. (B) Orthogonal ELISA-based dose-response assays. […] Data are expressed as mean abs450 ± SEM from triplicate determinations, and one of three representative experiments is shown. (C) Ceftazidime inhibition of β3 peptide binding to Syk from THP-1 whole cell lysate. THP-1 cell lysate (100 ug) was treated with or without ceftazidime (Ctaz) before incubation with β3-coated avidin-agarose beads, and bound Syk was measured by western blot (example shown in inset). Blank beads served as a negative control. […]

THP-1 cells = assay: THP-1 cell adhesion to CS-1; type: cell-based, human; details: cells loaded by glycerol shock
Method: Supplemental Figure 6. Effects of ceftazidime on THP-1 adhesion to CS-1. Cells were loaded with ceftazidime by glycerol shock. After loading, cells were washed with media and loaded with calcein-AM. CS-1–conjugated bovine serum albumin was immobilized in 96-well plates (5 ug/ml), and adhesion assays were performed as previously described (1). Data are expressed as average fluorescence ± standard deviation from triplicates. One of two representative experiments is shown. The green line represents cell adhesion in the absence of ceftazidime.

[2] = test system: MCP-1 gene expression in THP-1 cells; assay: Quantitative PCR of adhesion-dependent MCP-1 expression in THP-1 cells; type: cell-based, human; details: 100 µM loaded cells, plated on CS-1, 4 h, qPCR
Method: THP-1 cells (2 × 10^6 per treatment group) that were glycerol loaded with ceftazidime (100 µM) or vehicle control (as described above) were plated on CS-1 peptide (10 µg/ml; 6-well plates) in serum-free RPMI-1640. Control cells were also kept in suspension. Plated and suspension cells were incubated for 4 h at 37°C. After incubation, the medium was removed, and RNA was isolated from cells with a Qiagen RNA extraction kit. After cDNA synthesis, quantitative real-time PCR was used to determine the relative gene expression levels of IL-1β and monocyte chemoattractant protein (MCP)-1 in THP-1 cells adhered to CS-1 in the presence of vehicle or ceftazidime relative to that of cells in suspension. The cycle threshold (Ct) results generated were analyzed according to the comparative Ct method (2^-ΔΔCt), where ΔCt is the difference between the CT value of target versus GAPDH control, and ΔΔCt is the difference between the ΔCt values of a given treated adherent cell sample and that of cells in suspension. Statistical differences between the two treatment groups for each target were determined by a two-tailed, unpaired Student t test using GraphPad Prism 7.04 statistical software.
Figure 6 Selective inhibition of integrin signaling by ceftazidime. […] Data are expressed as mean ± range from duplicate determinations. […] Kinase activity is expressed as percent of maximum signal. […]

[3] = target: T2, pITAM : Syk tandem SH2 domains (GST-Syk(6-370)) (Homo sapiens, UniProt P43405); assay: pITAM-Syk AlphaScreen; details: read-out: IC50, inhibition of pITAM-Syk binding
T2 construct: made in house; host or cells: E. coli BL21(DE3)
Description: Figure 6 Selective inhibition of integrin signaling by ceftazidime. (A) Schematic illustration of the pITAM-Syk AlphaScreen used to test antagonist selectivity. (B) Comparison between ceftazidime (Ctaz) and pITAM peptide inhibition of pITAM-Syk binding in the AlphaScreen assay described in (A). […] Data are expressed as mean ± range from duplicate determinations. One of four representative assays is shown. (C) Effect of ceftazidime on Syk kinase activity. Ceftazidime (Ctaz) or Syk inhibitor P505-15 was used at 100 uM. Kinase activity is expressed as percent of maximum signal. Data are expressed as mean ± SEM (n = 3). **p < 0.01 (D) Selective effects of ceftazidime on integrin signaling. […] Phosphorylation of Syk (left and right panel) and Pyk-2 (center panel) was analyzed by immunoprecipitation and western blot. […] Quantification is shown below (left panel, n = 5; center panel, n = 3; right panel, n = 3), normalized to phosphorylation in suspension. Results are expressed as the mean ± SEM. […] Expression of interleukin (IL)-1β and monocyte chemoattractant protein (MCP)-1 genes was examined by quantitative real-time polymerase chain reaction. Data are expressed as expression levels relative to control cells kept in suspension. […] P-values were calculated by the Student t test. […]

CC(C)(O/N=C(\C(=O)N[C@@H]1C(=O)N2C(C(=O)[O-])=C(C[n+]3ccccc3)CS[C@H]12)c1csc(N)n1)C(=O)O [ceftazidime]
inhibitory activity in ELISA-based orthogonal assay [1]: remained active | effect on THP-1 cell adhesion to CS-1 (THP-1 cells): not due to ceftazidime inhibition of THP-1 cell adhesion to CS-1 | adhesion-dependent induction of the expression of MCP-1 [2]: significantly inhibited | IC50 [3]: > 300 µM
